Measured values published in patent US12391737B2, “Soluble NPY2 receptor agonists” (Boehringer Ingelheim International GmbH, priority 2020, dated 2025).

Columns and labels:
Solubility determination = conditions: for Sol6: pH 6; for Sol7: pH 7
Summary of the method: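 Sample: TFA-salt peptide at 10 mg/ml target in 0.1 M Na diphosphate, pH 6.4 or 7.0, shaken 2 h RT, filtered, diluted to 1 mg/ml.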

[1] = target: T1, Human Neuropeptide Y2 Receptor (Homo sapiens, UniProt P49146); test: Radioligand binding competition assay (RLB); conditions: Table 3, 125I-PYY(1-36) competition; read-out: Ki
T1 construct: purchased CHEMICON HTS066M
T1 sequence (P49146 1-381): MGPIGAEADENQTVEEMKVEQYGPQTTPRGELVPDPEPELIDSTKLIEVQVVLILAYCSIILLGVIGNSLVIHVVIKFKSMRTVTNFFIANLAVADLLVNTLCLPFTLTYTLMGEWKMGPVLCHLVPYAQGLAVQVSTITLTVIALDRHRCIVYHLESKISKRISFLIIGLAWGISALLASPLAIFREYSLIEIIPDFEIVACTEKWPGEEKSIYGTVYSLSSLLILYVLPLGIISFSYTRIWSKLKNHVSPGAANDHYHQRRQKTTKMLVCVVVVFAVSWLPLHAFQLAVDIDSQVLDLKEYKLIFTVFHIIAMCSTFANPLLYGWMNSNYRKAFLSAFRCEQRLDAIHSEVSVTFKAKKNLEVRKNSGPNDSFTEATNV
Summary of the method: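 IC50 values come from sigmoidal dose-response fits of scintillation counts after peptides competed for radioligand binding at receptor membranes (0.5 μg protein/well). Incubation ran 2 h at room temperature in HEPES buffer, pH 7.4, with Mg2+, Ca2+ and 0.2% ovalbumin.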

Row | SMILES | Sol6 (Solubility determination) | Sol7 (Solubility determination) | Ki [1]
1 | CC[C@H](C)[C@H](NC(=O)[C@H](CCC(=O)O)NC(=O)[C@H](CCC(=O)O)NC(=O)[C@@H]1CCCN1C(=O)[C@H](CO)NC(=O)[C@H](C)NC(=O)[C@H](CC(=O)O)NC(=O)[C@H](CCC(=O)O)NC(=O)[C@H](CCC(=O)O)NC(=O)[C@@H]1CCCN1C(=O)[C@H](CCCCNC(=O)CCCCCNC(=O)CC[C@H](NC(=O)CCCCCCCCCCCCCCCCC(=O)O)C(=O)O)NC(=O)[C@H](CCC(=O)O)NC(=O)[C@@H]1CCCN1C(=O)[C@H](C)NC(=O)CC(C)C)C(=O)N[C@@H](CCC(N)=O)C(=O)N[C@@H](CCCNC(=N)N)C(=O)N[C@@H](Cc1ccc(O)cc1)C(=O)N[C@@H](Cc1ccc(O)cc1)C(=O)N[C@H](C(=O)N[C@@H](CCC(N)=O)C(=O)N[C@@H](CC(C)C)C(=O)N[C@@H](CCCNC(=N)N)C(=O)N[C@@H](Cc1c[nH]cn1)C(=O)N[C@@H](Cc1ccc(O)cc1)C(=O)N[C@@H](Cc1ccc(O)cc1)C(=O)N[C@@H](CC(N)=O)C(=O)N[C@@H](Cc1c[nH]c2ccccc12)C(=O)N[C@@H](CC(C)C)C(=O)N[C@H](C(=O)N[C@@H](CCCNC(=N)N)C(=O)N[C@@H](CCC(N)=O)C(=O)N[C@@H](CCCNC(=N)N)C(=O)N[C@@H](Cc1ccc(O)cc1)C(N)=O)[C@@H](C)O)C(C)C [Compound 93, N{alpha-4}-(3-methylbutanoyl)-N{epsilon-7}-(6-[(4S)-4-carboxy-4-(17-carboxyheptadecanamido)butanamido]hexanoyl)-[4A,7K,9E,17I,18Q,22V,23Q,28Y,30W,31L]-hPYY(4-36)] | 9.4 mg/mL | 9.7 mg/mL | 1.71 nM
2 | CC(C)CC(=O)N[C@@H](C)C(=O)N1CCC[C@H]1C(=O)N[C@@H](CCC(=O)O)C(=O)N[C@@H](CCCCNC(=O)CCCCCNC(=O)CC[C@H](NC(=O)CCCCCCCCCCCCCCCCC(=O)O)C(=O)O)C(=O)N1CCC[C@H]1C(=O)N[C@@H](CCC(=O)O)C(=O)N[C@@H](C)C(=O)N[C@@H](CC(=O)O)C(=O)N[C@@H](C)C(=O)N[C@@H](CO)C(=O)N1CCC[C@H]1C(=O)N[C@@H](CCC(=O)O)C(=O)N[C@@H](CCC(=O)O)C(=O)N[C@@H](CC(C)C)C(=O)N[C@@H](CCC(N)=O)C(=O)N[C@@H](CCCNC(=N)N)C(=O)N[C@@H](Cc1ccc(O)cc1)C(=O)N[C@@H](Cc1ccc(O)cc1)C(=O)N[C@H](C(=O)N[C@@H](CCC(=O)O)C(=O)N[C@@H](CC(C)C)C(=O)N[C@@H](CCCNC(=N)N)C(=O)N[C@@H](Cc1c[nH]cn1)C(=O)N[C@@H](Cc1ccc(O)cc1)C(=O)N[C@@H](Cc1ccc(O)cc1)C(=O)N[C@@H](CC(N)=O)C(=O)N[C@@H](Cc1c[nH]c2ccccc12)C(=O)N[C@@H](CC(C)C)C(=O)N[C@H](C(=O)N[C@@H](CCCNC(=N)N)C(=O)N[C@@H](CCC(N)=O)C(=O)N[C@@H](CCCNC(=N)N)C(=O)N[C@@H](Cc1ccc(O)cc1)C(N)=O)[C@@H](C)O)C(C)C [Compound 171, N{alpha-4}-(3-methylbutanoyl)-N{epsilon-7}-(6-[(4S)-4-carboxy-4-(17-carboxyheptadecanamido)butanamido]hexanoyl)-[4A,7K,9E,10A,18Q,22V,23E,28Y,30W,31L]-hPYY(4-36)] | 10.0 mg/mL | 10.0 mg/mL | 2.83 nM
